From ChEMBL document CHEMBL4808205, “Discovery of TAK-041: a Potent and Selective GPR139 Agonist Explored for the Treatment of Negative Symptoms Associated with Schizophrenia” (J Med Chem, 2021)

Key:
[1] = Cmax in rat at 1 mg/kg, iv or 2 mg/kg, po; assay type: ADME, organism-based; design: dose 2 mg/kg; details: in vivo
[2] = Bioavailability in rat at 1 mg/kg, iv; assay type: ADME, organism-based; details: in vivo, po 2 mg/kg vs iv 1 mg/kg
[3] = Volume of distribution in rat at 1 mg/kg, iv or 2 mg/kg, po; assay type: ADME, organism-based; details: in vivo
[4] = Free drug concentration in BALB/c mouse brain; assay type: ADME, tissue-based; details: in vivo
[5] = Oral bioavailability in mouse at 30 mg/kg after 1 hr; assay type: ADME, organism-based; details: in vivo
MDR1 = assay: Apparent permeability in dog MDCK-MDR1 cells; assay type: ADME, cell-based, Canis lupus familiaris
[6] = Lipophilicity, logD of compound; assay type: physicochemical; details: octanol/water
MDR1 (human) = assay: Permeability across apical to basolateral side in pig LLC-PK1 cells expressing human MDR1; assay type: ADME, cell-based, Sus scrofa; details: read-out: permeability

SMILES	Cmax [1] [ng/mL]	bioavailability [2] [%]	Vd [3] [L/kg]	Drug uptake(free) [4] [nM]	bioavailability [5] [%]	Papp (MDR1) [×10⁻⁶ cm/s]	logD [6]	Papp A→B (MDR1 (human)) [×10⁻⁶ cm/s]
COc1cccc2nnn(CC(=O)N[C@@H](C)c3ccc(C)cc3)c(=O)c12	541	50	0.4	< 10	–	–	–	–
C[C@H](NC(=O)Cn1nnc2ccccc2c1=O)c1ccc(C(F)(F)F)cc1	644	> 100	1.4	< 10	–	–	–	–
COc1ccc2nnn(CC(=O)N[C@@H](C)c3ccc(C)cc3)c(=O)c2c1	15	2	0.6	–	–	–	–	–
Cc1ccc([C@H](C)NC(=O)Cn2nnc3ccccc3c2=O)cc1	94	27	2.1	–	30	–	–	–
O=C(Cn1nnc2ccccc2c1=O)NCCc1ccc(Cl)cc1	–	–	–	–	–	9.1	–	–
C[C@H](NC(=O)Cn1nnc2ccccc2c1=O)c1ccc(OC(F)(F)F)cc1 [ZELATRIAZIN]	961	100	1	< 10	–	–	2.4	18.3
